Experimental data: patent US9765075B2, “Substituted bridged urea analogs as sirtuin modulators” (GLAXOSMITHKLINE LLC, priority 2013, dated 2017)
Changes are numbered by the printed parent chain. Counter-ions that a name gives are not always drawn.

Columns and labels:
Test in all cases: SIRT1 inhibition assay, OAcADPr mass spectrometry
Format in all cases: biochemical
[1] = biological target: T1, full-length hSIRT1 E230K (Homo sapiens, UniProt Q96EB6, E230K)
T1 construct: His6 (C); made in house
T1 sequence (Q96EB6 1-747 E230K): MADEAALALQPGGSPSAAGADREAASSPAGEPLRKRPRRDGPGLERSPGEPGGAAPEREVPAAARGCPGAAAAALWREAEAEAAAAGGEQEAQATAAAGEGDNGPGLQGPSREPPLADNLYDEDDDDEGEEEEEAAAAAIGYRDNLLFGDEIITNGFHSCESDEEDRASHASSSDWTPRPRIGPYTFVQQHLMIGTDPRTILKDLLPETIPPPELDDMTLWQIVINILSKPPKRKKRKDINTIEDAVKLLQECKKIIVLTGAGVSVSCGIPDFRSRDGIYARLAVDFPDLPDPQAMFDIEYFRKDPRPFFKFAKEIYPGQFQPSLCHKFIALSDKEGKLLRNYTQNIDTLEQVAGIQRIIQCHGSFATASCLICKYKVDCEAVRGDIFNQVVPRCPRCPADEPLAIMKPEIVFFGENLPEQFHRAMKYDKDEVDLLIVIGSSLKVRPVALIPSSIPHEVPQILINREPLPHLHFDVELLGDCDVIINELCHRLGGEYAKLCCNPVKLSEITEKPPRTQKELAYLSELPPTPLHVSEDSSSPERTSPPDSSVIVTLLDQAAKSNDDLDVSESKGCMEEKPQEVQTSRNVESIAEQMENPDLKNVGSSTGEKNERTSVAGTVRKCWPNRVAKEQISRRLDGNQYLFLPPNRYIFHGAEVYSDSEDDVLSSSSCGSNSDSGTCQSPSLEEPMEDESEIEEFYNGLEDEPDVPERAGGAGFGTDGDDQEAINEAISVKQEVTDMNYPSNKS
Protocol: (§1) SIRT1 activation and inhibition assays were run in reaction buffer with 0.05% BSA at 25° C. and analyzed using the OAcADPr assay. Enzyme and compound were pre-incubated for 20 minutes before addition of substrates.

[2] = biological target: T2, full-length hSIRT1 N226A (Homo sapiens, UniProt Q96EB6, N226A)
T2 construct: The following point mutants of full-length hSIRT1 were generated; His6 (C); made in house
T2 sequence (Q96EB6 1-747 N226A): T1 sequence (Q96EB6 1-747 E230K) with N226A, K230E
Protocol: as §1

[3] = biological target: T3, full-length hSIRT1 I227A (Homo sapiens, UniProt Q96EB6, I227A)
T3 construct: The following point mutants of full-length hSIRT1 were generated; His6 (C); made in house
T3 sequence (Q96EB6 1-747 I227A): T1 sequence (Q96EB6 1-747 E230K) with I227A, K230E
Protocol: SIRT1 activation and inhibition assays were run in reaction buffer with 0.05% BSA at 25° C. and analyzed using the OAcADPr assay. Enzyme and compound were pre-incubated for 20 minutes before addition of substrates. […] In order to be sensitive to KM-modulating activators, substrate concentrations of approximately one-tenth their KM values were used (see Table 5).

CCCC[C@H](NC(=O)[C@H](CC(C)C)NC(=O)[C@H](CCCCNC(=O)C(F)(F)F)NC(=O)[C@H](CCCCN)NC(=O)[C@H](Cc1c[nH]cn1)NC(=O)[C@H](CCCNC(=N)N)NC(C)=O)C(=O)N[C@@H](Cc1ccccc1)C(N)=O [TFA-p53 7-mer, Ac-RHK-K^TFA-L-Nle-F-NH2]
IC50 [1]: 1.6 ± 0.3 µM
IC50 [2]: 0.35 ± 0.04 µM
IC50 [3]: 0.94 ± 0.06 µM
